{"source": "patent EP2377861B1", "about": "“Water-soluble bis-triazinyl-pyridines, bipyridines and terpyridines, synthesis and use of same” (Karlsruher Institut für Technologie, priority 2010, dated 2011)", "key": {"[1]": {"experiment": "Extraction with TODGA from HNO3, complexing agent in aqueous phase, distribution ratio by gamma spectrometry", "conditions": "for DEu(III) / DAm(III): 0.2 mol/L TODGA + 5 % vol. 1-Octanol in Kerosin; for SFEu(III)/Am(III): separation factor DEu(III)/DAm(III)", "from_the_text": "(§1) D2EHPA bestimmt. Aus allen Versuchen wurden die Verteilungsverhältnisse (Verhältnis der organischen zur wässrigen Konzentration) von Am(III) und Eu(III) mittels Gamma-Spektrometrie bestimmt. Die Berechnung der Verteilungsverhältnisse DM ergibt sich aus den Zählraten des Gammazählers, welcher die radioaktiven ^241Am (III) - und ^152Eu(III) - Isotope in volumengleichen Proben der wässrigen bzw. der organischen Phase erfasst gem. der Gleichung DM=[M]org/[M]aq, wobei die Konzentration des Metalls M aus [M]=Zählrate/Volumen berechnet wird.\nEs wurden […] und ^152Eu(III) (je ca. 1 kBq/mL) aus 0.09 / 0.18 / 0.44 / 0.88 / 1.8 mol/L HNO3 in eine organische Phase bestehend aus (0.2 mol/L TODGA + 5 % vol. 1-Octanol in Kerosin) extrahiert.\nEs wurden ^241Am(III) und ^152Eu(III) (je ca. 1 kBq/mL) aus 0.5 mol/L HNO3 in eine organische Phase bestehend aus (0.2 mol/L TODGA + 5 % vol. 1-Octanol in Kerosin) extrahiert. Die wässrige Phase enthielt entweder 0 mmol/L oder 10 mmol/L SO3-Ph-BTBP."}, "[2]": {"experiment": "Extraction with D2EHPA from HNO3, complexing agent in aqueous phase, distribution ratio by gamma spectrometry", "conditions": "for DAm(III) / DEu(III): 10 mmol/L SO3-Ph-BTP in aqueous phase, 0.1 mol/L D2EHPA in Kerosin; for SFEu(III)/Am(III): separation factor DEu(III)/DAm(III), D2EHPA", "from_the_text": "as §1\nEs wurden ^241Am(III) und ^152Eu(III) (je ca. 1 kBq/mL) aus 0.045 / 0.09 / 0.18 / 0.44 mol/L HNO3 in eine organische Phase bestehend aus (0.1 mol/L D2EHPA in Kerosin) extrahiert."}, "[3]": {"experiment": "Back-extraction from loaded TODGA organic phase (simulated PUREX raffinate) into aqueous complexing agent solution", "conditions": "after back-extraction into 10 mmol/L SO3-Ph-BTP in water", "from_the_text": "as §1\nEinem inaktiven Simulat eines PUREX-Raffinats wurden ^241Am(III) und ^I52Eu(III) (je ca. 1 kBq/mL) zugegeben. Es wurde in eine organische Phase bestehend aus (0.2 mol/L TODGA + 5 % vol. 1-Octanol in Kerosin) extrahiert."}, "Solubility in water": {"experiment": "Solubility in water", "format": "physicochemical"}, "[4]": {"conditions": "loaded 0.2 mol/L TODGA + 5 % vol. 1-Octanol in Kerosin"}, "[5]": {"conditions": "10 mmol/L SO3-Ph-BTBP in aqueous phase, 0.5 mol/L HNO3"}}}
{"substance": "2,6-Bis(5,6-di(sulfophenyl)-1,2,4-triazin-3-yl)pyridine [SO3-Ph-BTP]", "values": [{"measurement": "DEu(III)", "setting": "[1]; 10 mmol/L SO3-Ph-BTP in aqueous phase, 0,09 mol/L HNO3", "value": 1.2}, {"measurement": "DEu(III)", "setting": "[1]; 10 mmol/L SO3-Ph-BTP in aqueous phase, 0,18 mol/L HNO3", "value": 11.9}, {"measurement": "DEu(III)", "setting": "[1]; 10 mmol/L SO3-Ph-BTP in aqueous phase, 0,44 mol/L HNO3", "value": 180}, {"measurement": "DEu(III)", "setting": "[1]; 10 mmol/L SO3-Ph-BTP in aqueous phase, 0,88 mol/L HNO3", "value": "> 10^3"}, {"measurement": "DEu(III)", "setting": "[1]; 10 mmol/L SO3-Ph-BTP in aqueous phase, 1,8 mol/L HNO3", "value": "> 10^3"}, {"measurement": "Trennfaktor SFEu(III)/Am(III)", "setting": "[1]; 10 mmol/L SO3-Ph-BTP, ca. 0.1-0.5 mol/L HNO3, TODGA", "value": "500-1000"}, {"measurement": "DAm(III)", "setting": "[1]; 10 mmol/L complexing agent in aqueous phase, 0,09 mol/L HNO3", "value": "1.1·10^-3"}, {"measurement": "DAm(III)", "setting": "[1]; 10 mmol/L complexing agent in aqueous phase, 0,18 mol/L HNO3", "value": 0.014}, {"measurement": "DAm(III)", "setting": "[1]; 10 mmol/L complexing agent in aqueous phase, 0,44 mol/L HNO3", "value": 0.35}, {"measurement": "DAm(III)", "setting": "[1]; 10 mmol/L complexing agent in aqueous phase, 0,88 mol/L HNO3", "value": 4.5}, {"measurement": "DAm(III)", "setting": "[1]; 10 mmol/L complexing agent in aqueous phase, 1,8 mol/L HNO3", "value": 90}, {"measurement": "SFEu(III)/Am(III)", "setting": "[1]; 10 mmol/L complexing agent, 0,09 mol/L HNO3, TODGA", "value": 1100}, {"measurement": "SFEu(III)/Am(III)", "setting": "[1]; 10 mmol/L complexing agent, 0,18 mol/L HNO3, TODGA", "value": 850}, {"measurement": "SFEu(III)/Am(III)", "setting": "[1]; 10 mmol/L complexing agent, 0,44 mol/L HNO3, TODGA", "value": 510}, {"measurement": "SFEu(III)/Am(III)", "setting": "[1]; 10 mmol/L complexing agent, 0,88 mol/L HNO3, TODGA", "value": "> 220"}, {"measurement": "SFEu(III)/Am(III)", "setting": "[1]; 10 mmol/L complexing agent, 1,8 mol/L HNO3, TODGA", "value": "> 11"}, {"measurement": "DAm(III)", "setting": "[2]; 0.045 mol/L HNO3", "value": "1.10^-3"}, {"measurement": "DEu(III)", "setting": "[2]; 0.045 mol/L HNO3", "value": 5.3}, {"measurement": "DAm(III)", "setting": "[2]; 0.09 mol/L HNO3", "value": "4.10^-4"}, {"measurement": "DEu(III)", "setting": "[2]; 0.09 mol/L HNO3", "value": 1.4}, {"measurement": "DAm(III)", "setting": "[2]; 0.18 mol/L HNO3", "value": "5.10^-5"}, {"measurement": "DEu(III)", "setting": "[2]; 0.18 mol/L HNO3", "value": 0.37}, {"measurement": "DAm(III)", "setting": "[2]; 0.44 mol/L HNO3", "value": "< d.l."}, {"measurement": "DEu(III)", "setting": "[2]; 0.44 mol/L HNO3", "value": 0.06}, {"measurement": "Trennfaktor SFEu(III)/Am(III)", "setting": "[2]; 10 mmol/L SO3-Ph-BTP, D2EHPA in Kerosin", "value": "> 3000"}, {"measurement": "SFEu(III)/Am(III)", "setting": "[2]; 10 mmol/L SO3-Ph-BTP, 0.045 mol/L HNO3", "value": 5200}, {"measurement": "SFEu(III)/Am(III)", "setting": "[2]; 10 mmol/L SO3-Ph-BTP, 0.09 mol/L HNO3", "value": 3400}, {"measurement": "SFEu(III)/Am(III)", "setting": "[2]; 10 mmol/L SO3-Ph-BTP, 0.18 mol/L HNO3", "value": 7000}, {"measurement": "DAm(III)", "setting": "[3]; [4]", "value": 0.059}, {"measurement": "DEu(III)", "setting": "[3]; [4]", "value": 49}, {"measurement": "Trennfaktor SFEu(III)/Am(III)", "setting": "[3]; loaded TODGA phase", "value": 830}]}
{"substance": "6,6'-Bis(5, 6-di(sulfophenyl)-1, 2, 4-triazin-3-yl)-2,2'-bipyridine [SO3-Ph-BTBP]", "values": [{"measurement": "Löslichkeit in Wasser", "setting": "Solubility in water", "value": "> 0.1", "unit": "mol/L"}, {"measurement": "DAm(III)", "setting": "[1]; [5]", "value": 0.33}, {"measurement": "DEu(III)", "setting": "[1]; [5]", "value": 150}, {"measurement": "SFEu(III)/Am(III)", "setting": "[1]; 10 mmol/L SO3-Ph-BTBP, 0.5 mol/L HNO3, TODGA", "value": 450}]}
